pIC50: −log10 of the molar value. Like-named read-outs stand apart in the source and are kept apart here.
Experiments:
MV4-11 cells = assay: MTT cell viability assay, MV4-11 cells; type: cell-based; settings: for sensitivity of MV4-11 cells (cell viability, in words): single agent
Protocol: (§1) Briefly, effect of drugs alone and in combinations were determined for a 3-5 log scale of concentrations of drugs and with a constant ratio between the two drugs used for co-treatment. Cells were seeded in 96-well plates (50 000 cell/well). Cells were treated just after seeding, for 48 hours. Cell viability was determined with MTT assay. Cells were centrifuged 5 minutes at 1200 rpm, medium removed, 100 μl of MTT solution (1 mg/ml in PBS) added, incubated for 2 hours at 37° C., centrifuged, MTT solution removed and DMSO (100 μl) added to dissolve purple formazan formed by living cells. Absorbance of the solution was determined at 540 nm.
(§2) HL60, KG1, KG1a and MV4-11 cells were seeded in 96-well plates (50 000 cells/well). Cells were treated just after seeding with increasing doses of daunorubicin, for 48 hours. Cell viability was determined with MTT assay as follows: cells were centrifuged 5 minutes at 1200 rpm, medium removed, 100 μl of MTT solution (1 mg/ml in PBS) added, incubated for 2 hours at 37° C., centrifuged, MTT solution removed and DMSO (100 μl) added to dissolve purple formazan formed by living cells. Absorbance of the solution was determined at 540 nm.
(§3) HL60, KG1, KG1a and MV4-11 cells were seeded in 96-well plates (50 000 cells/well). Cells were treated just after seeding with increasing doses of cytarabine, for 48 hours.
(§4) HL60, KG1, KG1a and MV4-11 cells were seeded in 96-well plates (50 000 cells/well).
(§5) HL60, KG1, KG1a and MV4-11 cells were seeded in 96-well plates (50 000 cells/well). Cells were treated just after seeding with increasing doses of cisplatin, for 48 hours.
(§6) HL60, KG1, KG1a and MV4-11 cells were seeded in 96-well plates (50 000 cells/well). Cells were treated just after seeding with increasing doses of Dendrogenin A, for 48 hours.
(§7) MV4-11 cells were seeded in 96-well plates (50 000 cells/well).
as §7

HL60 cells = assay: MTT cell viability assay, HL60 cells; type: cell-based
Protocol: as §1, §2, §3, §4, §5, §6
(§8) HL60 cells were seeded in 96-well plates (50 000 cells/well).
HL60 cells were seeded in 96-well plates (50 000 cells/well). Cells were treated just after seeding with increasing doses of Dendrogenin A and Cisplatin, for 48 hours.
as §8
HL60 cells were seeded in 96-well plates (50 000 cells/well). Cells were treated just after seeding with increasing doses of Dendrogenin A and arsenic trioxide, for 48 hours.
as §8

KG1a cells = assay: MTT cell viability assay, KG1a cells; type: cell-based; settings: for sensitivity of KG1a cells compared to KG1 cells (cell viability, in words): single agent
Protocol: as §1, §2, §3, §4, §5, §6
(§9) KG1a cells were seeded in 96-well plates (50 000 cells/well).
as §9
KG1a cells were seeded in 96-well plates (50 000 cells/well). […]

KG1 cells = assay: MTT cell viability assay, KG1 cells; type: cell-based; settings: 48 hours
Protocol: as §1, §2, §3, §4, §5, §6
(§10) KG1 cells were seeded in 96-well plates (50 000 cells/well).
as §10, §10
KG1 cells were seeded in 96-well plates (50 000 cells/well). Cells were treated just after seeding with increasing doses of Dendrogenin A and Cisplatin, for 48 hours.
as §10
KG1 cells were seeded in 96-well plates (50 000 cells/well). Cells were treated just after seeding with increasing doses of Dendrogenin A and arsenic trioxide, for 48 hours.
as §10

[1] = tested on: drug sensitive cancer cell line KG1; assay: Cytotoxic activity, Trypan blue counting, KG1 cells; settings: for cytotoxic activity of the antineoplastic agent alone: KG1, Daunorubicin 0.05-0.5 μM or cytarabine 0.1-1 μM, 48 hours
Protocol: In a 6-microwell plate was seeded 0.5.10^6 cells of KG1 cell line. […] Then, Daunorubicin (final concentration: 0.05, 0.1, 0.25 and 0.5 μM) or cytarabine (final concentration: 0.1, 0.2, 0.5 and 1 μM) were added to […]. After the cells were cultured for additional 48 hours, culture suspensions were centrifuged and cell pellets were resuspended in the Trypan blue solution (0.25% (w/v) in PBS) and counted in a Malassez cell under a light microscope.

[2] = tested on: chemoresistant cancer cell line KG1a; assay: Cell death induction, Trypan blue counting, KG1a cells; type: cell-based; settings: 48 hours; for cell death induction by the antineoplastic agent alone: KG1a, Daunorubicin 0.5 μM or cytarabine 1 μM
Protocol: In a 6-microwell plate was seeded 0.5·10^6 cells of KG1a cell line. The same day, Solvant vehicule or different concentrations of Dendrogenin A (final concentrations: 5 and 10 μM) alone or in combination with Daunorubicin (final concentration: 0.5 μM) or cytarabine (final concentration: 1 μM) were added into the well. After 48 hours of incubation, the cells suspensions were centrifuged and cell pellets were resuspended in the Trypan blue solution (0.25% (w/v) in PBS) and counted in a Malassez cell under a light microscope.

AML patient cells = assay: Cell death of AML patient samples, Annexin V-FitC/7-AAD flow cytometry; type: cell-based; settings: Dendrogenin A 5 μM alone, 48 hours
Protocol: In a 6-microwell plate were seeded 0.5.10^6 patient cells. The same day, Solvant vehicle or different concentrations of Dendrogenin A (final concentrations: 5 μM) alone or in combination with Daunorubicin (final concentration: 10 nM) were added into the well. After 48 hours of incubation, the cells suspensions were centrifuged and washed with PBS and cell pellets were resuspended in a labeling solution containing Annexin V-FitC and 7-AAD as described in the kit protocol (Annexin V-FitC/7-AAD staining kit, Roche Applied Science). Cells were then incubated for 15 minutes at room temperature in the dark and analyzed by Facs Flow cytometry.

[3] = target: cholesterol epoxide hydrolase (Homo sapiens, UniProt Q15125); settings: de Medina et al., Nature Communications, 2013; cited from earlier work
[4] = Homo sapiens, KG-1, KG1 cell line
[5] = Homo sapiens, KG-1a, KG1a cell line, 48 hours, MTT, read-out: IC 50

Chain of cholesterol epoxide hydrolase (Q15125 whole entry): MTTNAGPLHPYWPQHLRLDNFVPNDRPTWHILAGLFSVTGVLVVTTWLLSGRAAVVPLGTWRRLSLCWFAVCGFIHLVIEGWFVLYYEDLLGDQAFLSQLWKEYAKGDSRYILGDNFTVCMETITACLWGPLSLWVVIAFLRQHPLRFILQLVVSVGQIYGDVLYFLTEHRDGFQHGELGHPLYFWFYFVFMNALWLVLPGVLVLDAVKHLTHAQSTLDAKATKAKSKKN

## O=c1[nH]cc(F)c(=O)[nH]1 [5-Fluorouracil]
MV4-11 cells; Homo sapiens, MV4-11, 48 h
  pIC50: 2.67
MV4-11 cells; 48 hours, MTT
  sensitivity of MV4-11 cells (cell viability, in words): more resistant to 5-FU compared to Daunorubicin or Cytarabine
HL60 cells; Homo sapiens, HL-60, 48 h
  pIC50: 2.61
HL60 cells; single agent, 48 hours, MTT
  sensitivity of HL60 cells (cell viability, in words): more resistant to 5-FU compared to Daunorubicin or Cytarabine
KG1a cells; Homo sapiens, KG-1a, 48 h, heading: IC 50, KG1a cell line, 48 hours, MTT, read-out: IC 50
  pIC50: 5.40
KG1a cells; 48 hours, MTT
  sensitivity of KG1a cells compared to KG1 cells (cell viability, in words): resistant
KG1 cells; [4]
  pIC50: 3.12

## N.N.[Cl][Pt][Cl] [Cisplatin]
MV4-11 cells; MV4-11 cell line, 48 hours, MTT, read-out: IC 50
  pIC50: 5.14
MV4-11 cells; 48 hours, MTT
  sensitivity of MV4-11 cells (cell viability, in words): more resistant to Cisplatin compared to Daunorubicin or Cytarabine
HL60 cells
  sensitivity of HL60 cells (cell viability, in words): as sensible to Cisplatin as to Daunorubicin and Cytarabine
HL60 cells; read-out: IC 50
  pIC50: 5.48
KG1a cells; KG1a cell line, 48 hours, MTT, read-out: IC 50
  pIC50: 5.02
KG1a cells; 48 hours, MTT
  sensitivity of KG1a cells compared to KG1 cells (cell viability, in words): resistant
KG1 cells; KG1 cell line
  pIC50: 5.48

## Nc1ccn([C@@H]2O[C@H](CO)[C@@H](O)[C@@H]2O)c(=O)n1 [Cytarabine]
MV4-11 cells; Homo sapiens, MV4-11, 48 h
  pIC50: 6.74
MV4-11 cells; 48 hours, MTT
  sensitivity of MV4-11 cells (cell viability, in words): more sensitive than KG1 cells
HL60 cells; Homo sapiens, HL-60, 48 h
  pIC50: 6.80
HL60 cells; single agent, 48 hours, MTT
  sensitivity of HL60 cells (cell viability, in words): more sensitive than KG1 cells
KG1a cells; [5]
  pIC50: 5.82
KG1a cells; 48 hours, MTT
  sensitivity of KG1a cells compared to KG1 cells (cell viability, in words): resistant
[1]
  cytotoxic activity of the antineoplastic agent alone: sensitive
KG1 cells; [4]
  pIC50: 6.47
[2]
  cell death induction by the antineoplastic agent alone: resistant

## COc1cccc2c1C(=O)c1c(O)c3c(c(O)c1C2=O)C[C@@](O)(C(C)=O)C[C@@H]3O[C@H]1C[C@H](N)[C@H](O)[C@H](C)O1 [Daunorubicin]
MV4-11 cells; Homo sapiens, MV4-11, 48 h
  pIC50: 7.17
MV4-11 cells; 48 hours, MTT
  sensitivity of MV4-11 cells (cell viability, in words): as sensitive as KG1 cells
HL60 cells
  sensitivity of HL60 cells (cell viability, in words): as sensitive as KG1 cells
HL60 cells; Homo sapiens, HL-60, 48 h
  pIC50: 7.21
KG1a cells; Homo sapiens, KG-1a, 48 h
  pIC50: 5.97
KG1a cells; 48 hours, MTT
  sensitivity of KG1a cells compared to KG1 cells (cell viability, in words): resistant
[1]
  cytotoxic activity of the antineoplastic agent alone: sensitive
KG1 cells; [4]
  pIC50: 7.19
[2]
  cell death induction by the antineoplastic agent alone: resistant

## CC(C)CCC[C@@H](C)[C@H]1CC[C@H]2[C@@H]3C[C@@H](NCCc4cnc[nH]4)[C@@]4(O)C[C@@H](O)CC[C@]4(C)[C@H]3CC[C@]12C [Dendrogenin A, 5α-hydroxy-6β-[2-(1H-imidazol-4-yl)ethylamino]cholestan-3β-ol]
MV4-11 cells; Homo sapiens, MV4-11 cell line, 48 hours, MTT, read-out: IC 50
  pIC50: 5.14
MV4-11 cells; 48 hours, MTT
  sensitivity of MV4-11 cells (cell viability, in words): as sensitive as KG1 or KG1a cells
HL60 cells; Homo sapiens, HL-60, HL60 cell line, 48 hours, MTT, read-out: IC 50
  pIC50: 5.09
HL60 cells; single agent, 48 hours, MTT
  sensitivity of HL60 cells (cell viability, in words): as sensitive as KG1 or KG1a cells
AML patient cells
  cell death rate of tumor cells resistant to Daunorubicin: high or moderate cell death rate
[3]
  inhibition of cholesterol epoxide hydrolase: selective inhibitor
KG1a cells; [5]
  pIC50: 4.88
KG1a cells; 48 hours, MTT
  sensitivity of KG1a cells compared to KG1 cells (cell viability, in words): as sensitive as KG1 cells
[1]; Dendrogenin A 2.5 μM for 24 hours, then Daunorubicin 0.05-0.5 μM for 48 hours
  effect on sensibility of KG1 cells to Daunorubicin: able to increase this sensibility
[1]; Dendrogenin A 2.5 μM for 24 hours, then cytarabine 0.1-1 μM for 48 hours
  effect on sensibility of KG1 cells to Cytarabine: able to increase this sensibility
KG1 cells; [4]
  pIC50: 5.05
[2]; Dendrogenin A 5 and 10 μM with Daunorubicin 0.5 μM
  effect on resistance of KG1a cells to Daunorubicin: able to abolish this resistance
[2]; Dendrogenin A 5 and 10 μM with cytarabine 1 μM
  effect on resistance of KG1a cells to Cytarabine: able to abolish this resistance
